Results from patent US20250338851A1, “Boosted IPBC for Wet-State Bacterial Control” (Troy Technology II, Inc., priority 2021, published 2025).
Values joined by “and” are separate entries in the source; they are usually repeats but may differ in a detail not shown here. Identical values can stand only once. Like-named read-outs stand apart in the source and are kept apart here.

Legend:
Type in all cases: cell-based
[1] = system: Burkholderia sp. Troy JZ2; test: Minimum inhibitory concentration testing (microbroth dilution) and synergy index
Experimental: (§1) MICs were determined via microbroth dilution using the following specific test parameters:
(§2) Necessary organism dilutions via OD600 were calculated based on OD600 of 1.0 being equivalent to 8×10^8 CFU/mL. Biocide dilutions were performed in 2-fold increments for each assay.
(§3) Synergy index (SI) scores were calculated according to the mass action equation below: […]
(§4) S.I.[MIC[A]in-blend/MIC[A]alone]+[MIC[B]in-blend/MIC[B]alone]
(§5) Combinations of ingredients were determined to be synergistic (S.I.<0.5), additive (S.I.>0.5 to 1), indifferent (S.I.>1 to <2) or antagonistic (S.I.>2), as defined by EUCAST guidelines. See European Committee for Antimicrobial Susceptibility Testing (EUCAST) of the European Society of Clinical Microbiology and Infectious Diseases (ESCMID). EUCAST Definitive Document E.Def 1.2, May 2000: Terminology relating to methods for the determination of susceptibility of bacteria to antimicrobial agents, Clin. Microbiol. Infect. Off Publ. Eur. Soc. Clin. Microbiol. Infect. Dis. 6, 503-508 (2000); Helander I. M., Mattila-Sandholm T., Fluorometric assessment of gram-negative bacterial permeabilization, J. Appl. Microbiol. 88:213-219 (2000).

Bacillus sp. Troy JZ14 = test: as above; details: 96 well microbroth dilution, MHB, 24 hours of incubation
Experimental: as §1, §2, §3, §4, §5

[2] = system: bacterial consortium: Alcaligenes faecalis, Enterobacter aerogenes, Escherichia coli, Pseudomonas aeruginosa, Staphylococcus aureus, Microbacterium …; test: Bacterial challenge testing (industrial strength); details: Interior Paint #1; lowest concentration free of detectable bacterial growth 7 days following the 4th inoculation
Description: Where industrial strength inoculations are indicated, bacterial challenge testing organisms were Alcaligenes faecalis (ATCC #25094), Enterobacter aerogenes (ATCC #13048), Escherichia coli (ATCC #11229), Pseudomonas aeruginosa (ATCC #10145), Staphylococcus aureus (ATCC #6538), Microbacterium paraoxydans (Troy Isolate), Burkholderia cenocepacia (Troy Isolate), Citrobacter werkmanii (Troy Isolate), and Acinetobacter sp. (Troy Isolate). All bacteria were blended from separate overnight cultures grown in Tryptic Soy Broth (TSB) and mixed at equal CFU via OD600 measurements, then diluted to OD600=7 (˜10^9 CFU/mL) to create the final bacterial consortium. Each mixture was prepared shortly before each inoculation. Inoculations were performed by adding […] to 50 g of the indicated test sample to give ˜10^7 CFU/g per inoculation. Viability readings were performed at the indicated intervals following each challenge by applying a small amount of the test sample onto PCA. Plates were then incubated at 32° C. for 3-5 days before being evaluated with a semi-quantitative scale. This scale estimates the approximate CFU/g by visual assessment of the colony density along the streak lines. Readings are recorded as the average of two duplicate semi-quantitative readings from “0” to “4.” Samples were mixed before every viability reading and after every inoculation.
(§6) Challenge test scoring was done by the weighted sum of squares for each of the twelve data points collected for each test sample. The weighting was done proportional to the streak day, with day 1 weighted at 10%, day 2 weighted at 20%, and day 3 weighted at 70%. The sum of all 12 values is then taken and divided by the score of the unprotected sample to achieve the total growth score. The reported “weighted performance” score is 1 minus the growth score.

E. coli ATCC #11229 = test: Minimum inhibitory concentration testing (microbroth dilution) and synergy index; details: 96 well microbroth dilution, MHB, 24 hours of incubation
Experimental: as §1
(§7) Biocide dilutions were performed in 2-fold increments for each assay.
as §3, §4
as §5, with “6, 503-508 (2000); Helander I. M., Mattila-Sandholm T., Fluorometric assessment of gram-negative bacterial permeabilization, J. Appl.” left out, “Microbiol.” for “Microbiol. 88:213-219 (2000).”

S. aureus ATCC #6538 = test: as above; details: 96 well microbroth dilution, MHB, 24 hours of incubation
Experimental: as §1, §7, §3, §4
as §5, with “6, 503-508 (2000); Helander I. M., Mattila-Sandholm T., Fluorometric assessment of gram-negative bacterial permeabilization, J. Appl.” left out, “Microbiol.” for “Microbiol. 88:213-219 (2000).”

[3] = system: Pseudomonas sp. Troy JZ103; test: as above; details: 96 well microbroth dilution, MHB, 24 hours of incubation
Experimental: as §1, §7, §3, §4
as §5, with “6, 503-508 (2000); Helander I. M., Mattila-Sandholm T., Fluorometric assessment of gram-negative bacterial permeabilization, J. Appl.” left out, “Microbiol.” for “Microbiol. 88:213-219 (2000).”

[4] = system: P. aeruginosa ATCC #10145; test: as above
Experimental: as §1, §7, §3, §4
as §5, with “6, 503-508 (2000); Helander I. M., Mattila-Sandholm T., Fluorometric assessment of gram-negative bacterial permeabilization, J. Appl.” left out, “Microbiol.” for “Microbiol. 88:213-219 (2000).”

E. aerogenes ATCC #13048 = test: as above; details: Klebsiella aerogenes, ATCC13048; 96 well microbroth dilution, MHB, 24 hours of incubation; read-out: MIC
Experimental: as §1, §7, §3, §4
as §5, with “6, 503-508 (2000); Helander I. M., Mattila-Sandholm T., Fluorometric assessment of gram-negative bacterial permeabilization, J. Appl.” left out, “Microbiol.” for “Microbiol. 88:213-219 (2000).”

[5] = system: Microbacterium sp. Troy JZ13; test: as above; details: 96 well microbroth dilution, MHB, 24 hours of incubation
Experimental: as §1, §7, §3, §4
as §5, with “6, 503-508 (2000); Helander I. M., Mattila-Sandholm T., Fluorometric assessment of gram-negative bacterial permeabilization, J. Appl.” left out, “Microbiol.” for “Microbiol. 88:213-219 (2000).”

[6] = system: bacterial consortium: Alcaligenes faecalis (ATCC #25094), Enterobacter aerogenes (ATCC #13048), Escherichia coli (ATCC #11229), Pseudomonas aeruginosa (ATCC …); test: Bacterial challenge testing (standard)
Experimental: Bacterial and fungal challenge testing was performed following Troy's standard challenge test procedure SOP MI-07. […] Where indicated, additional bacterial organisms were added to the inoculum such that each organism in the inoculum provided equal CFU. […] Fungal consortia were prepared on Malt Agar slants and diluted to 10^6 spores/mL using a hemocytometer to count before use. Each mixture was prepared shortly before each inoculation. Inoculations were performed by adding 0.5 mL to 50 g of the indicated test sample, giving either ˜10^6 CFU/g of bacteria or ˜10^4 spores/g of fungi per challenge. Viability readings were performed at the indicated intervals following each challenge by applying a small amount of the test sample onto PCA (for bacteria) or Malt Agar (for fungus). Bacterial plates were then incubated at 32° C. for 3-5 days, and Malt Agar plates were incubated for 1 week at 28° C. before reading. Viability plates were evaluated with a semi-quantitative scale. This scale estimates the approximate CFU/g by visual assessment of the colony density along the streak lines. Readings are recorded as the average of two duplicate semi-quantitative readings from “0” to “4.” Samples were mixed before every viability reading and after every inoculation.
as §6

[7] = system: Pseudomonas aeruginosa (ATCC #10145); test: Kill curve; details: for Kill curve CFU/mL: 0.2%
Experimental: Overnight cultures of Pseudomonas aeruginosa (ATCC #10145) growing in Tryptic Soy Broth were diluted to OD600=0.7 in Mueller Hinton Broth containing the indicated level of test compound. Samples containing IPBC were dosed with Polyphase PW40 (40% IPBC). Samples containing ZnO were dosed from a 50% ZnO dispersion (“1678-54”). Time points were collected by adding 1 mL of the sample into 9 mL of Dey-Engley Neutralizing Broth and performing a serial dilution in 1× Butterfield's Phosphate Buffer. Counts were obtained from pour plates in Tryptic Soy Agar after overnight incubation at 35° C.

[8] = system: Pseudomonas aeruginosa (ATCC #10145); test: NPN uptake assay (membrane permeability); details: 1% w/v solutions
Experimental: The NPN uptake assay was performed roughly as previously described. See Helander I. M., Mattila-Sandholm T., Fluorometric assessment of gram-negative bacterial permeabilization, J. Appl. Microbiol. […] Next, the cells were centrifuged (10,000 g, 5 minutes) washed twice with assay buffer (5 mM HEPES-KOH, 5 mM glucose, pH 7.2) and resuspended in assay buffer to OD600=1. 100 microliters of washed cells in assay buffer was then mixed with 100 microliters of assay buffer containing 20 μM NPN in a 96-well optical bottom black plate (Thermo). Two microliters of the test substances were then added, briefly mixed, and then placed in a plate reader to monitor fluorescence (excitation 350 nm, emission 420 nm) at one minute intervals for 10 minutes. Controls containing no cells or water-only were included in the assay. NPN uptake was calculated using the formula below at each time point and averaged over all time-points and three replicates.

[9] = system: Pseudomonas aeruginosa (ATCC #10145); test: Growth curves (OD600)
Experimental: To generate growth curves, overnight cultures of Pseudomonas aeruginosa (ATCC #10145) from Plate Count Agar were lifted and resuspended in dH2O and adjusted to OD600=0.01 with sterile Mueller Hinton Broth (MHB). This culture was distributed into wells of an uncovered 96-well plate with the indicated biocides. The OD600 was then measured initially and then every 30′ for 16 hours at 37° C. with constant double orbital shaking. Due to the opacity of the samples dosed with some test compounds, the curves were generated by background subtracting from wells containing sterile MHB and then subtracted from their initial (t=0) measurement.

[10] = system: Pseudomonas aeruginosa (ATCC #10145); test: Checkerboard assay; details: alone, 100-500 ppm; 24 hours of incubation
Experimental: The checkerboard assay was performed by separately dosing Polyphase PW40 (40% IPBC) and a 20% nanoparticle ZnO dispersion (Sigma #721077) into 100 microliters of Mueller Hinton Broth containing ˜1.0*10^5 CFU/mL of Pseudomonas aeruginosa (ATCC #10145). The plate was then incubated overnight at 37° C. with constant double orbital shaking. The next day, the dispersions were allowed to settle on the bench for 2 hours and the plate was photographed. Growth in this assay was defined as the turbidity of the supernatant.

[11] = Escherichia coli, ATCC11229, read-out: MIC
[12] = Staphylococcus aureus, ATCC6538, read-out: MIC
[13] = Pseudomonas aeruginosa, ATCC10145, 24 h
[14] = Joint Compound, lowest concentration free of detectable bacterial growth 7 days following the 4th inoculation
[15] = 96 well microbroth dilution, MHB, 24 hours of incubation

Question: Which MIC ([1]; Burkholderia, 24 h) does the source give for CCCCC(O)CO (stereo not shown) [1,2-hexanediol] here?
Answer: 5000 µg/mL

Question: What about the MIC (Bacillus sp. Troy JZ14; Bacillus, read-out: MIC) of the same compound?
Answer: 10000 µg/mL

Question: And the “Pass Level” value [2]?
Answer: Not Effective

Question: And the “Pass Level (ppm a.i.)” value [2]?
Answer: > 12,000 ppm a.i.

Question: What about the MIC (E. coli ATCC #11229; [11]) of the same compound?
Answer: 6000 µg/mL

Question: What about the MIC (S. aureus ATCC #6538; [12]) of the same compound?
Answer: 24000 µg/mL

Question: What about the MIC ([3]; Pseudomonas, read-out: MIC) of the same compound?
Answer: 5000 µg/mL

Question: What about the MIC [4, 13] of the same compound?
Answer: 6000 µg/mL

Question: And the MIC (E. aerogenes ATCC #13048)?
Answer: 10000 µg/mL

Question: And the MIC ([5]; read-out: MIC)?
Answer: 6000 µg/mL

Question: What about the “Pass Level” value [6, 14] of the same compound?
Answer: 1.2 % w/w

Question: What about the “Pass Level (ppm a.i.)” value [6, 14] of the same compound?
Answer: 11,880 ppm a.i.

Question: And the “Killing of Pseudomonas (kill curve)” value ([7]; 1,2-hexanediol added to IPBC/ZnO (FIG. 5))?
Answer: fully capable of killing Pseudomonas

Question: What does the source list for CCCCCCOCCOCCO [Hexyl Carbitol]?
Answer: MIC [1, 15]: 1853 ppm; MIC (Bacillus sp. Troy JZ14): 4447 ppm; MIC (E. coli ATCC #11229): 11857 ppm; MIC (S. aureus ATCC #6538): 11857 ppm; MIC [3]: 5929 ppm; MIC [4, 15]: 11856 ppm; MIC [5]: 1482 ppm; Membrane disruption potential against Pseudomonas (NPN assay) [8]: highest membrane disruption potential; Improvement in the bacterial resistance of paint containing IPBC/ZnO ([6]; paint challenge testing (Table A9)): highly similar performance as 1,2-hexanediol

Question: Which “Membrane disruption potential against Pseudomonas (NPN assay)” value [8] does the source give for CCCCCCOCCO [Hexyl Cellosolve] here?
Answer: highest membrane disruption potential

Question: CCCCNC(=O)OCC#CI [IPBC, 3-iodoprop-2-yn-1-yl butylcarbamate] was tested. Which MIC ([1]; Burkholderia, 24 h) did it give?
Answer: 63 µg/mL

Question: And the MIC (Bacillus sp. Troy JZ14; Bacillus, read-out: MIC)?
Answer: 9 µg/mL

Question: And the Pseudomonas growth ([9]; 400 ppm IPBC (0.1% w/w Polyphase PW40) with ≥0.25 mM PAβN, 16 hours)?
Answer: complete growth inhibition

Question: What about the Pseudomonas growth ([9]; 400 ppm alone, 16 hours) of the same compound?
Answer: growth

Question: What about the Pseudomonas growth ([9]; IPBC with PAβN in the presence of 1 mM MgCl2) of the same compound?
Answer: weaker IPBC potentiation

Question: What about the Pseudomonas growth ([9]; control, without PAβN (FIG. 1C)) of the same compound?
Answer: no Pseudomonas inhibition

Question: And the MIC (E. coli ATCC #11229; [11])?
Answer: 2400 µg/mL

Question: And the MIC (S. aureus ATCC #6538; [12])?
Answer: 450 µg/mL

Question: And the MIC ([3]; Pseudomonas, read-out: MIC)?
Answer: 300 µg/mL

Question: And the MIC [4, 13]?
Answer: ≥ 400 µg/mL

Question: And the MIC (E. aerogenes ATCC #13048)?
Answer: 1000 µg/mL

Question: And the MIC ([5]; read-out: MIC)?
Answer: 11 µg/mL

Question: And the “Turbidity of wells (growth)” value [10]?
Answer: turbid

Question: What about the “Kill curve CFU/mL” value ([7]; 0 hrs) of the same compound?
Answer: 5.40E+06 CFU/mL and 7.00E+06 CFU/mL

Question: What about the “Kill curve CFU/mL” value ([7]; 2 hrs) of the same compound?
Answer: 7.10E+06 CFU/mL and 7.30E+06 CFU/mL

Question: What about the “Kill curve CFU/mL” value ([7]; 24 hrs) of the same compound?
Answer: 1.33E+10 CFU/mL and 1.45E+10 CFU/mL

Question: And the “Kill curve CFU/mL” value ([7]; 48 hrs)?
Answer: 4.90E+09 CFU/mL and 3.80E+09 CFU/mL
